# Reference: US20210029991A1, “TRISILOXANE ALKOXYLATE COMPOSITIONS” (Momentive Performance Materials Inc., priority 2018, published 2021)
# Several values for one entry are separate records, joined by “and”; a condition that tells them apart may be missing. Equal values may be shown once.
# What was measured:
# [1] = Dynamic surface tension (Kruss Maximum Bubble Pressure tensiometer); assay type: physicochemical; settings: 0.4 wt % in deionized water
# Procedure: Dynamic surface tension (DST) was measured using a Kruss Maximum Bubble Pressure tensiometer. TSA solutions were prepared at 0.4 wt % in deionized water, further purified with a Milli-Q ultrapure filtration system (Millipore Corp.). The data for surface tension vs time (milliseconds) was plotted and then the surface tension was calculated from a trend line to generate surface tension data at 75, 100, 150 and 200 milliseconds (mSec).
# bean leaf (Vicia faba) = experiment: Uptake (stomatal infiltration) of ^14C-glyphosate isopropylamine salt into bean leaf; assay type: in vivo
# Procedure: The impact of the TSA-1/TSA-2 blends on the uptake of ^14C-glyphosate (herbicide) solutions into bean leaf (Vicia fava) was determined at 10 minutes after application, according to the method described by Stevens et al., Contributions of stomatal infiltration and cuticular penetration to enhancements of foliar uptake by surfactants. […]. Sci., 33, 371-382, to establish the contribution of trisiloxane alkoxylate (TSA) surfactants on the speed of uptake, via stomatal infiltration). Here glyphosate solutions containing 0.4% TSA surfactant was applied to bean leaf using a micro-syringe. At 10 minutes after application, the leaf was washed with aqueous ethanol and uptake was determined by subtraction, using a scintillation counter to measure residual ^14C-glyphosate-IPA salt (Stevens et al. […]. Sci., 33, 371-382). The uptake by stomatal infiltration of ^14C-glyphosate-isopropyl amine salt into bean-leaf (Vicia faba) at 10 minutes after application was determined as outlined in Example 4.
structure (smiles),measurement,setting,value
C[Si](C)(C)O[Si](C)(CCCOCCOCCOCCOCCOCCOCCOCCOCCO)O[Si](C)(C)C [TSA-1-B],"Dynamic Surface Tension, IFDT 75 mSec",[1]; calculated from trend line at 75 mSec,49.5 mN/m
same,"Dynamic Surface Tension, IFDT 100 mSec",[1]; calculated from trend line at 100 mSec,47.6 mN/m
same,"Dynamic Surface Tension, IFDT 150 mSec",[1]; calculated from trend line at 150 mSec,43.9 mN/m
same,"Dynamic Surface Tension, IFDT 200 mSec",[1]; calculated from trend line at 200 mSec,40.1 mN/m
same,Uptake (%) Observed,"bean leaf (Vicia faba); ^14C-glyphosate into bean, 0.4% TSA adjuvant, 10 minutes after application",79.3 ab % and 90.2 a % and 88.0 ab % and 85.9 a %
same,Uptake (%) Predicted,"bean leaf (Vicia faba); weighted average of the components, 0.4% adjuvant, 10 minutes",79.3% and 90.2% and 88.0% and 85.9%
